The source of these data is patent US20260258035A1, “FIVE-MEMBERED AND SIX-MEMBERED NITROGEN-CONTAINING COMPOUND, AND INTERMEDIATE, PREPARATION METHOD AND USE THEREOF” (HANGZHOU SYNRX THERAPEUTICS BIOMEDICAL TECHNOLOGY CO., LTD., priority 2022, published 2026).

In one series the target is PARG (Homo sapiens, UniProt Q86W56). In words: Biochemical assay (PARG, TFMU-ADPr substrate).
Series [1] can be described thus: Solubility assay (FaSSGF / FaSSIF). The format is physicochemical. The note with it: kinetic from dmso stock, 2 h at 25° C. Here is the method:
1). Preparation of Solutions:
The FaSSGF solution was prepared as follows: • a) preparation of FaSSGF buffer: dissolve 2.0 g of NaCl as the raw material in about 0.9 L of purified water; • b) adjustment of the pH of the buffer: adjust the pH of the buffer to 1.6 with 1N HCL, and replenish the buffer with purified water to the volume of 1 L; and • c) preparation of FaSSGF solution by addition of FaSSGF powder: add 0.06 g of the FaSSGF powder to about 0.5 L of the buffer, stir until the powder was completely dissolved, and make up for the volume (1 L) with the buffer.
The FaSSIF solution was prepared as follows: • a) preparation of FaSSIF buffer: dissolve 0.42 g of NaOH, 3.44 g of anhydrous NaH2PO4, and 6.19 g of NaCl as raw materials in about 0.9 L of purified water; • b) adjustment the pH of the buffer: adjust the pH of the buffer to 6.5 with 1 N NaOH or 1 N HCL, and replenish the buffer with purified water to the volume of 1 L; and • c) preparation of FaSSIF solution by addition of FaSSIF powder: add 2.24 g of the FaSSIF powder to about 0.5 L of the buffer, stir until the powder was completely dissolved, and make up for the volume (1 L) with the buffer.
2). Preparation of the Solution of Control Compound:
The control compound was weighed and dissolved in DMSO to 10 mM to obtain a stock solution.
3) Preparation of the Solution of Compound to be Tested:
The compound to be tested was formulated into a 10 mM DMSO stock solution.
4) Preparation of Internal Standard Solution:
a) The internal standard was weighed and dissolved in DMSO to 10 mM to obtain an internal standard stock solution (ISTD stock solution).
b) The internal standard stock solution was diluted to 500 nM (Tolbutamide) with an ACN:methano mixture (volume ratio: 1:1) to obtain a quenching solution.
a) The FaSSGF solution at pH 1.6 and the FaSSIF solution at pH 6.5 were pre-warmed; and then, the compound was injected into the buffer.
Once done, the samples were centrifuged at 12,000 rpm for 10 min, and the supernatant was transferred to a new tube. The supernatant was diluted 10-fold and 100-fold with the FaSSGF solution at pH 1.6 or the FaSSIIF solution at pH 6.5. 20 μL of each sample (1×, 10×, 100× and standard curve) was added to 500 μL of the IS solution. The resulting mixture was vortexed vigorously for 1 min and centrifuged at 4,500 rpm for 15 min at 4° C. 150 μL of the supernatant was transferred for LC-MS/MS sample analysis.

The test system of a further series is HCC1806. Kind of series: Cell viability assay (CellTiter-Glo). The format is cell-based, Human. The settings on record: HCC1806, 7 days, CellTiter-Glo, read-out: IC50 (nM) in cell viability assay. (In general: ATP-based viability assays read luminescence as a measure of living cells.)
The mark [2] stands for this setting: 4 nM PARG, 66.2 uM TFMU-ADPr, 3 min at room temperature.
Setting [3] is: fassgf or other biorelevant, FaSSGF solution pH 1.6, 100 μM from DMSO stock, read-out: FaSSGF solubility.
Where [4] appears, read: FaSSIF solution pH 6.5, 100 μM from DMSO stock, read-out: FaSSIF solubility.

As usually defined, the IC50 is the concentration that gives 50% inhibition. Broadly, the solubility is how much of the substance goes into solution per volume.

Molecules are shown by their SMILES. Values after ≈ are worked out from the molar mass of the structure shown. Like-named read-outs stand apart in the source and are kept apart here.

PARG, sequence (Q86W56 whole entry): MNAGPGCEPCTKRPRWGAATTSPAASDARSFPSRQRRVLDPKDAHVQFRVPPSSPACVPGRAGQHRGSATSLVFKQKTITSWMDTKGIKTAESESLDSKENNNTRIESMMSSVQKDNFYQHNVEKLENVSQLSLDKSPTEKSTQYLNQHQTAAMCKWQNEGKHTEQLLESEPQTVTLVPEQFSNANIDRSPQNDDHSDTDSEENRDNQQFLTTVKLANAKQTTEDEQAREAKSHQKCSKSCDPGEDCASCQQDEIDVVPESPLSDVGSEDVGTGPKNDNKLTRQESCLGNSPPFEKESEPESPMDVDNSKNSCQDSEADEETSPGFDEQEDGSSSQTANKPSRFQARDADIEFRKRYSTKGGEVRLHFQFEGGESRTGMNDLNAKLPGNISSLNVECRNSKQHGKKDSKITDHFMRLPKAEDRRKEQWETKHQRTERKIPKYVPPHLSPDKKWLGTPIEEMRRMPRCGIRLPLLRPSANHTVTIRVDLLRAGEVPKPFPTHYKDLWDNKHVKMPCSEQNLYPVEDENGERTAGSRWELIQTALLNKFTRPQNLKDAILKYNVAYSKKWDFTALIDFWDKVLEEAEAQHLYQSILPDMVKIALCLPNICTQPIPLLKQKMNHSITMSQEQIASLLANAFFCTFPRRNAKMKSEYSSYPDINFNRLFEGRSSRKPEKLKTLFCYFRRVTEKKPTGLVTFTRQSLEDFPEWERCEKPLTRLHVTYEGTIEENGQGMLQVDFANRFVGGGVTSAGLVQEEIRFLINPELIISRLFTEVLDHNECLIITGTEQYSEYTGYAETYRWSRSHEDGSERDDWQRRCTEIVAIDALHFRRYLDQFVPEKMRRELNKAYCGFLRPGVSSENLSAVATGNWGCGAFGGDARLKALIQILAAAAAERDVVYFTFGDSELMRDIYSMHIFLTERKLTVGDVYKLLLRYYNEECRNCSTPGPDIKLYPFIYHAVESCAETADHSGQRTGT

As to `CC(C)C(=O)N1CCN(c2cc(S(=O)(=O)NC3(C#N)CC3)cn3c(-c4nnc(C(F)F)s4)ncc23)CC1` [Example 32, N-(1-cyanocyclopropyl)-3-(5-(difluoromethyl)-1,3,4-thiadiazol-2-yl)-8-(4-isobutyrylpiperazin-1-yl)imidazo[1,5-a]pyridine-6-sulfonamide], the IC50 at PARG (setting [2]) is below 100 nM; on PARG (PARG, TFMU-ADPr substrate), 0.77 nM. The solubility at 2 h in series [1] (setting [3]) came to 0.9 µM (≈ 0.496 µg/mL); in series [1] (setting [4]) it was 3.18 µM (≈ 1.75 µg/mL).

In the case of `CC(C)C(=O)N1CCN(c2cc(S(=O)(=O)NC3(C#N)CC3)cn3c(-c4nnc(C(F)(F)F)s4)ncc23)CC1` [Example 167, N-(1-cyanocyclopropyl)-8-(4-isobutyrylpiperazin-1-yl)-3-(5-(trifluoromethyl)-1,3,4-thiadiazol-2-yl)imidazo[1,5-a]pyridine-6-sulfonamide], the IC50 against PARG (setting [2]) was below 100 nM; on PARG (PARG, TFMU-ADPr substrate), 16.6 nM; in the series on HCC1806 it was 290 nM; with HCC1806 (Homo sapiens, HCC1806, 168 h) it was below 500 nM. Besides, the solubility at 2 h was 57.5 µM (≈ 32.7 µg/mL) in series [1] (setting [3]) and 96.5 µM (≈ 54.9 µg/mL) in series [1] (setting [4]).
